According to patent US9637491B2, “Pyrazolo[4,3-D]pyrimidines as kinase inhibitors” (Origenis GmbH, priority 2012, dated 2017):

What follows are compounds tested against T1, SYK kinase (Homo sapiens, UniProt P43405) (assay: SYK assay (OMNIA Kinase Assay, Invitrogen)). Conditions: SYK Activities; 1 mM ATP, 10 μM Omnia Peptide Substrate Tyr 7, 30° C.
T1 construct: purchased Invitrogen, Carlsbad
Format: biochemical
Method in brief: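 SYK was added last to start phosphorylation of a chelation-enhanced SOX peptide substrate (10 μM) in the presence of 1 mM ATP and 0.2 mM DTT at 30° C. Kinetic readings at λex 360/λem 485 nm over 30 min gave velocities, fitted sigmoidally against compound concentration to give IC50.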

| Structure (SMILES) | IC50 [nM] |
| --- | --- |
| FCCn1cc(Nc2nc(C3CC3)nc3cn[nH]c23)cn1 [Example 362, 5-cyclopropyl-N-(1-(2-fluoroethyl)-1H-pyrazol-4-yl)-1H-pyrazolo[4,3-d]pyrimidin-7-amine] | 10 to 100 |
| CS(=O)(=O)Nc1cccc(-c2nc(Nc3cnn(CCO)c3)c3[nH]ncc3n2)c1 [Example 262, N-(3-(7-((1-(2-hydroxyethyl)-1H-pyrazol-4-yl)amino)-1H-pyrazolo[4,3-d]pyrimidin-5-yl)phenyl)methanesulfonamide] | 100 to 1000 |
| COc1ccc(Nc2nc(-c3ccccc3NS(C)(=O)=O)nc3cn[nH]c23)cc1OC [Example 2, N-(2-(7-((3,4-dimethoxyphenyl)amino)-1H-pyrazolo[4,3-d]pyrimidin-5-yl)phenyl)methanesulfonamide] | 100 to 1000 |
| c1nn(C2CCOCC2)cc1Nc1nc(C2CCC2)nc2cn[nH]c12 [Example 119, 5-cyclobutyl-N-(1-(tetrahydro-2H-pyran-4-yl)-1H-pyrazol-4-yl)-1H-pyrazolo[4,3-d]pyrimidin-7-amine] | 10 to 100 |
| CC(=O)N1CCN(c2ccc(Nc3nc(C4CC4)nc4cn[nH]c34)cc2)CC1 [Example 33, 1-(4-(4-((5-cyclopropyl-1H-pyrazolo[4,3-d]pyrimidin-7-yl)amino)phenyl)piperazin-1-yl)ethan-1-one] | 100 to 1000 |
| COc1ccc(Nc2nc(C3CC3)nc3cn[nH]c23)cc1OC [Example 19, 5-cyclopropyl-N-(3,4-dimethoxyphenyl)-1H-pyrazolo[4,3-d]pyrimidin-7-amine] | 10 to 100 |
| COCC(COC)n1cc(Nc2nc(C3CCC3)nc3cn[nH]c23)cn1 [Example 463, 5-cyclobutyl-N-(1-(1,3-dimethoxypropan-2-yl)-1H-pyrazol-4-yl)-1H-pyrazolo[4,3-d]pyrimidin-7-amine] | 100 to 1000 |
| CC(C)(C)N1CCC(n2cc(Nc3nc(C4CC4)nc4cn[nH]c34)cn2)CC1 [Example 328, N-(1-(1-(tert-butyl)piperidin-4-yl)-1H-pyrazol-4-yl)-5-cyclopropyl-1H-pyrazolo[4,3-d]pyrimidin-7-amine] | < 10 |
| c1ccc(Cn2cc(-c3nc(Nc4ccc(N5CCOCC5)cc4)c4[nH]ncc4n3)cn2)cc1 [Example 460, 5-(1-benzyl-1H-pyrazol-4-yl)-N-(4-morpholinophenyl)-1H-pyrazolo[4,3-d]pyrimidin-7-amine] | 10 to 100 |

More lines, now with the values ahead:

| IC50 [nM] | Structure (SMILES) |
| --- | --- |
| 100 to 1000 | O=C1CCCc2ccc(Nc3nc(-c4c(F)cccc4F)nc4cn[nH]c34)cc2N1 [Example 521, 8-((5-(2,6-difluorophenyl)-1H-pyrazolo[4,3-d]pyrimidin-7-yl)amino)-4,5-dihydro-1H-benzo[b]azepin-2(3H)-one] |
| 10 to 100 | Cc1ccsc1-c1nc(Nc2ccc(N3CCOCC3)cc2)c2[nH]ncc2n1 [Example 52, 5-(3-methylthiophen-2-yl)-N-(4-morpholinophenyl)-1H-pyrazolo[4,3-d]pyrimidin-7-amine] |
| 10 to 100 | CN1C(=O)COc2ccc(Nc3nc(-c4ccoc4)nc4cn[nH]c34)cc21 [Example 488, 6-((5-(furan-3-yl)-1H-pyrazolo[4,3-d]pyrimidin-7-yl)amino)-4-methyl-2H-benzo[b][1,4]oxazin-3(4H)-one] |
| 100 to 1000 | O=C1CSc2ccc(Nc3nc(-c4ccc5cn[nH]c5c4)nc4cn[nH]c34)cc2N1 [Example 520, 6-((5-(1H-indazol-6-yl)-1H-pyrazolo[4,3-d]pyrimidin-7-yl)amino)-2H-benzo[b][1,4]thiazin-3(4H)-one] |
| 100 to 1000 | CC(c1ccccc1)n1cc(Nc2nc(-c3ccoc3)nc3cn[nH]c23)cn1 (stereo not drawn) [Example 487, 5-(furan-3-yl)-N-(1-(1-phenylethyl)-1H-pyrazol-4-yl)-1H-pyrazolo[4,3-d]pyrimidin-7-amine] |
| < 10 | FCCn1cc(Nc2nc(-c3ccc4cn[nH]c4c3)nc3cn[nH]c23)cn1 [Example 417, N-(1-(2-fluoroethyl)-1H-pyrazol-4-yl)-5-(1H-indazol-6-yl)-1H-pyrazolo[4,3-d]pyrimidin-7-amine] |
